Measurements published in US6682739B1, “Methods of inhibiting osteoclastogenesis” (The Trustees of the University of Pennsylvania, priority 1999, dated 2004).
Positions of bridges follow the written chain, without caps; N, C: chain ends. No end group written: not given here.

Assays:
[1] = test system: TRANCE-induced marrow cultures (RANK Ligand/RANK interaction); experiment: TRANCE-induced marrow cultures; assay type: cell-based; conditions: reciprocal dose-dependence of WP9QY and TRANCE
[2] = test system: osteoclast formation (osteoclastogenesis); conditions: co-culture induced by 1alpha,25-dihydroxyvitamin D3 and PGE2
[3] = test system: TNF-α receptor; conditions: L929 lymphocytes; cited from earlier work
[4] = molecular target: T1, TNF (UniProt P01375 77-233); experiment: inhibition of the TNF/TNF receptor interaction; format not described in Example 1
T1 construct: also called TNF-alpha; Tumor Necrosis Factor
T1 sequence (P01375 77-233 limits assumed): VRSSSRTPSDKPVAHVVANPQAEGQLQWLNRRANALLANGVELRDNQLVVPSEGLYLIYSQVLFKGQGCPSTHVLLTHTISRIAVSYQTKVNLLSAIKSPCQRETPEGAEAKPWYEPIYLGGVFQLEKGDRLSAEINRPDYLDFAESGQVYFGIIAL

[5] = test system: osteoclastogenesis and associated bone resorption; conditions: administration in vivo; animal models that mimic osteopenic disorders; cited from earlier work

Molecule: CC(C)C[C@@H]1NC(=O)[C@H](Cc2ccc(O)cc2)NC(=O)[C@H](CCC(N)=O)NC(=O)[C@H](CO)NC(=O)[C@H](Cc2c[nH]c3ccccc23)NC(=O)[C@@H](NC(=O)[C@@H](N)Cc2ccc(O)cc2)CSSC[C@@H](C(=O)N[C@@H](Cc2ccc(O)cc2)C(=O)O)NC1=O [WP9QY, YC WSQYL CY]
- effect on TRANCE-induced marrow cultures [1]: inhibits
- inhibition of osteoclastogenesis, in words [2]: dose- and time-dependently inhibited
- IC50 ([2]; read-out: IC50 for inhibition of osteoclastogenesis, peptide tested at about 5 μM to about 500 μM): 250 µM
- antagonism of the effects of TNF-binding to the TNF-α receptor [3]: efficiently antagonized

B1: WP9QY (peptide)
peptide: YCWSQYLCY
modifications: disulfide 2-8
notes: Synthetic exocyclic peptide; also called WP9QY peptide; peptidomimetic (WP9QY)
- IC50 [4]: 5 µM

B2: OPG: naturally occurring secreted protein with homology to members of the TNF receptor family; positive control in the TRAP assay (protein, UniProt O00300 22-401, looked up)
Tumor necrosis factor …: ETFPPKYLHYDEETSHQLLCDKCPPGTYLKQHCTAKWKTVCAPCPDHYYTDSWHTSDECLYCSPVCKELQYVKQECNRTHNRVCECKEGRYLEIEFCLKHRSCPPGFGVVQAGTPERNTVCKRCPDGFFSNETSSKAPCRKHTNCSVFGLLLTQKGNATHDNICSGNSESTQKCGIDVTLCEEAFFRFAVPTKFTPNWLSVLVDNLPGTKVNAESVERIKRQHSSQEQTFQLLKLWKHQNKDQDIVKKIIQDIDLCENSVQRHIGHANLTFEQLRSLMESLPGKKVGAEDIEKTIKACKPSDQILKLLSLWRIKNGDQDTLKGLMHALKHSKTYHFPKTVTQSLKKTIRFLHSFTMYKLYQKLFLEMIGNQVQSVKISCL
- effect on osteoclastogenesis and associated bone resorption in vivo [5]: inhibits osteoclastogenesis and associated bone resorption
